According to article PMC6895199, “A new antiviral scaffold for human norovirus identified with computer-aided approaches on the viral polymerase” (Scientific Reports, 2019):
“And” between values parts separate entries of the source, which are not always exact repeats. Identical values can stand only once. Like-named read-outs stand apart in the source and are kept apart here.

Assays:
HuNoV (GII.4) RdRp = test: Counter-screen gel-shift assay of primed elongation activity (PE44-NoV template); format: biochemical, human norovirus; conditions: fixed concentration of 100 μM
Description: To further confirm RdRp inhibition and exclude any potential false positives from the first fluorescence RdRp assay, the eight molecules were then assessed using a gel-shift enzyme activity assay at a fixed concentration of 100 μM, following a procedure previously adopted by our research group.
Figure 5 A counter-screen gel-shift assay was used to confirm HuNoV (GII.4) RdRp inhibitory activity of compounds 2, 3, 34 and 35 (A), 4, 5, 6 (B) and 7 (C). The eight compounds were examined for inhibition of primed elongation activity. PE44-NoV RNA templates (32 nucleotides) were extended (44 nucleotides) by the RdRp in the absence of any test compounds (0.5% DMSO [vol/vol] negative control) or with test compounds at a fixed concentration of 100 μM. […] Full-length gels are presented in Supplementary Fig. S3.
Fluorescent RdRp activity assays were carried out as previously described[12],[29]. Briefly, RdRp activity was quantified by monitoring the formation of double-stranded RNA (dsRNA) from a single stranded homopolymeric template, poly(C) (Sigma Aldrich), using the fluorescent dye PicoGreen (Life Technologies, Carlsbad, CA, USA). RdRp assays were performed in 384-well plates, and each reaction mixture contained 400 ng enzyme, 45 μM GTP, 10 ng/μL poly(C) RNA, 2.5 mM MnCl2, 5 mM dithiothreitol, (DTT), 0.01% bovine serum albumin (BSA), and 0.005% Tween 20 in 20 mM Tris-HCl, pH 7.5, with a final reaction volume of 25 μL. The PPNDS and compound 1 were used as a positive controls. RdRps were incubated for 10 mins at 30 °C in the presence of the test compounds or the compound vehicle DMSO (0.5% vol/vol) before addition into the reaction mixture, which was then allowed to run 15 min at 30 °C then terminated with 10 mM EDTA, followed by PicoGreen staining and dsRNA quantitation. GraphPad Prism V6.05 (La Jolla, CA, USA) was used to plot the IC50 values. A secondary gel-based polymerase activity assay was used as a counter-screen as described below, to exclude the possibility of RdRp activity enhancement. Primed elongation activity was examined in a gel-based assay as previously described[12],[29] using the RNA template (PE44-NoV). Gels were imaged using BioRad (Hercules, CA, U.SA) Geldoc Universal Hood II, running BioRad Image Lab software, V4.1, build 16.

[1] = similar MNV cell-based assay; cited from earlier work
HuNoV GI.1 replicon = test: HuNoV GI replicon assay (HGT-NV cells, qRT-PCR); format: cell-based, human norovirus GI.1
Description: Given that in this system the gene encoding for the major capsid protein is replaced by a neomycin resistance gene, no new virus particles will be produced but the non-structural proteins are expressed and the replication of the genomic RNA can be studied.
Cells and virus: MNV (virus strain MNV-1.CW1) was propagated in RAW 264.7 cells grown in DMEM (Life Technologies, Gent, Belgium) supplemented with 10% or 2% FBS, 2 mM L-glutamine, 20 mM HEPES, 0.075 g/L sodium bicarbonate, 1 mM sodium pyruvate, 100 U penicillin/mL and 100 µg/mL streptomycin at 37 °C in a humidified atmosphere of 5% CO2. The human norovirus GI.1 replicon harboring gastric tumor-1 cell line (HGT-NV) (kindly provided by Dr. Ian Goodfellow, University of Cambridge) was maintained in DMEM supplemented with 10% FBS, 2mM L-glutamine, 0.075 g/L sodium bicarbonate and 1.0 mg/ml of Geneticin (G418; Life Technologies), at 37 °C in a humidified atmosphere of 5% CO2[34].
Antiviral assay with the HGT-NV replicon: The inhibitory effect of Compounds on human norovirus replication was assessed by quantification of the levels of HuNoV GI replicon RNA and of the reference (housekeeping) gene β-actin mRNA [by quantitative reverse transcription polymerase chain reaction (qRT-PCR)]. To this end, HGT cells (2000 cells/well) were seeded in 96-well plates, in complete DMEM without the selection marker G418. Following an incubation period of 24 h, a serial dilution of rupintrivir was added to the cultures. After 72 h of incubation, cell monolayers were washed with phosphate-buffered saline (PBS) and collected for quantification of RNA load by qRT-PCR. Intracellular RNA was extracted from cells using the cell-to-cDNA lysis buffer (Ambion, Life Technologies). For detection of HuNoV GI replicon RNA, forward (5′-CCG GCT ACC TGC CCA TTC-3′), reverse (5′-CCAGATCATCCTGATCGACAAG-3′) primers and probe (5′-FAM-ACATCGCATCGAGCGAGCACGTAC-TAMRA-3′) for the neomycin gene were used. For detection of β-actin mRNA, forward (5′-GGCATCCACGAAACTACCTT-3′), reverse (5′-AGCACTGTGTTGGCGTACAG-3′) primers and probe (5′-HEX-ATCATGAAGTGTGACGTGGACATCCG-BHQ1–3′) were used. One-step qRT-PCR was performed in a 20 µL reaction mixture containing 10 µl 2X iTaq Universal SYBR® Green one step reaction mix (Bio-rad, California, USA), 5.17 µl RNAse free water, 0.5 µl of iScript reverse transcriptase (Bio-rad, California, USA), 4 µl of the template RNA and either 300 nM of HuNoV GI replicon primers and probe, 300 nM of β-actin primers and 200 nM of probe. Cycling conditions were: reverse transcription at 50 °C for 10 min, initial denaturation at 95 °C for 3 min, followed by 40 cycles of denaturation at 95 °C for 15 s, annealing and extension at 60 °C for 30 seconds (Roche Lightcycler®96, Roche Diagnostics, Belgium). To determine the relative expression levels of HuNoV GI replicon RNA, β-actin was used as a normalizer and ratios were calculated using the Pfaffl method. The Expression Ratio (HuNoV GI Replicon/β-actin) was calculated as: Expression Ratio = (E HuNoV)^ΔCT, HuNoV (CC – TC)/(Eβ-actin)^ΔCT, β-actin (CC – TC), where E HuNoV and Eβ-actin represent the amplification efficiency (E = 10^–1/slope) for the HuNoV GI replicon and β-actin qRT-PCR reactions, respectively. ΔCT, HuNoV (CC – TC) is the Ct of untreated control cells (CC) minus the Ct of cells treated with a compound concentration (TC) obtained with HuNoV GI replicon primers and probe. ΔCT, β-actin (CC – TC) is the Ct of untreated control cells (CC) minus the Ct of cells treated with a compound concentration (TC) obtained with β-actin primers and probe. Efficiency values (E HuNoV and Eβ-actin) were determined for each qRT-PCR reaction.

[2] = Crystal formation seen in the cell-based assays; format: physicochemical; conditions: observed with the HuNoV GI replicon results
MNV = MNV CPE reduction assay (MTS) in RAW 264.7 cells; format: cell-based, mouse norovirus (MNV-1.CW1); conditions: Norovirus, RAW264.7, in Mus musculus, Table 2, RAW 264.7, range 0.6–100 µM, at least three independent experiments
Method in brief: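 MNV-1.CW1-infected RAW 264.7 cells treated at eight concentrations (0.6–100 µM), 2′-C-methylcytidine as positive control. Viability read by MTS/PMS at OD 498 nm after 2 h; %CPE reduction normalised to uninfected and infected untreated cells, EC50 = concentration protecting 50% of cells from virus-induced CPE.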

[3] = Cytotoxicity by the MTS method on uninfected cells; format: cell-based; conditions: mouse, uninfected RAW 264.7 cells, Table 2, at least three independent experiments
Description: Cytotoxicity: The cytotoxicity of the Compounds was evaluated by the MTS method, by exposing uninfected cells to the same concentrations of compounds for 3 days. The %cell viability was calculated as (ODtreated/ODCC) × 100, where ODCC is the OD of uninfected untreated cells and ODtreated are uninfected cells treated with compound. The CC50 was defined as the compound concentration that reduces the number of viable cells by 50%[34].

SMILES | inhibition of primed elongation activity (gel-shift) (HuNoV (GII.4) RdRp) | CC50 [1] | EC50 values (column head printed 'M') (HuNoV GI.1 replicon; HuNoV GI replicon in HGT-1 cells, 72 h, replicon RNA by qRT-PCR) | EC50 (HuNoV GI.1 replicon; Norwalk virus, HGT-1, 72 h, read-out: EC50 values (column head printed 'M'), HuNoV GI replicon in HGT-1 cells, replicon RNA by qRT-PCR) [µM] | EC50 (HuNoV GI.1 replicon; read-out: EC50 values (column head printed 'M'), HuNoV GI replicon in HGT-1 cells, 72 h, replicon RNA by qRT-PCR) [µM] | concentration from which crystals form [2] [µM] | EC50 (MNV) [µM] | CC50 at 3 days [3] [µM]
O=C1NN(c2ccccc2)C(=O)/C1=C/c1ccc(-c2ccc(S(=O)(=O)Nc3ccccc3)cc2)o1 [Compound 1] | complete inhibition | ~64 µM and 62.8 µM | – | – | – | – | – | –
O=C(NC(=S)Nc1ccc(N2CCN(S(=O)(=O)c3ccccc3)CC2)cc1)c1ccccc1 [Compound 60, N-((4-(4-(Phenylsulfonyl)piperazin-1-yl)phenyl)carbamothioyl)benzamide] | – | – | low micromolar range | 8 | 8.5 ± 2.1 | ≥ 25 | 66.6 ± 12.3 | > 100
